From the OPERA property sets (Mansouri et al. 2018)

SMILES	logP
CC1(C)C(=O)NC(=O)NC1=O	-0.44
O=C1NC(=S)NC(=O)C12CCCCC2	1.78
O=C1NC(=O)C2(CCCCC2)C(=O)N1	0.91
O=C1NC(=O)C2(CCCCCCCCCC2)C(=O)N1	3.15
CCC1(C)C(=O)NC(=O)NC1=O	0.08
O=C1NC(=O)C2(CC2)C(=O)N1	-0.53
CC(C)=CCC1(C(C)(C)C)C(=O)NC(=O)NC1=O	2.56
CC(C)=CCC1(C(C)C)C(=O)NC(=O)NC1=O	2.23
O=C1NC(=O)C2(CCC2)C(=O)N1	-0.27
O=C1NC(=O)C(c2ccccc2)(c2ccccc2)C(=O)N1	1.96
O=C1NC(=O)C2(CCCCCCCCCCC2)C(=O)N1	3.51
O=C1NC(=O)C2(CCCCCCC2)C(=O)N1	1.79
O=C1NC(=O)C2(CCCCCC2)C(=O)N1	1.36
CCC1(CC=C(C)C)C(=O)NC(=O)NC1=O	1.73
C=CCC1(C)C(=O)NC(=O)NC1=O	0.36
O=C1NC(=O)C2(CCCC2)C(=O)N1	0.24
CC1(c2ccccc2)C(=O)NC(=O)NC1=O	0.91
